# According to patent US9138659B2, “Compositions, methods, and systems relating to controlled crystallization and/or nucleation of molecular species” (Massachusetts Institute of Technology, priority 2010, dated 2015):
# Several values for one entry are separate records, joined by “and”; a condition that tells them apart may be missing. Identical values can stand only once.
# Legend:
# [1] = ROY nucleation induction time with PEGMDA microgels in ethanol; format: physicochemical; conditions: for τ(O): ROY orange needle form; for τ(R): ROY red form; for τ(Y): ROY yellow form
# Experimental: (§1) In each experiment, crystallization of pure forms of either Y (yellow prisms), R (red prisms) or ON (orange needles) were observed from ethanol solution stochastically (FIG. 30), and their frequencies of occurrence were calculated by conducting 50-150 experiments in each case (FIG. 31). Nucleation induction time data from bulk solution or with PEG130DA microgels were fitted with the stretched exponential model and the average induction time thus regressed represents an average of all forms (Table 10), since the frequencies of occurrence for R and ON were too low for separate statistical analysis. […] In the multi-exponential model, each exponential decay process may be better represented with a stretched exponential, however, a simple exponential suffices in this case and decent fit was obtained with R^2 very close to unity (Table 11).
# Nucleation induction time statistics of ROY with or without the presence of PEGDA microgels were determined. For each type of samples, 50-100 experiments were performed to obtain the induction time statistics wherein P is the probability for observing no crystallization event within time t is estimated from the fraction of samples haven't crystallized at this time point. Either stretched exponential model or multi-exponential models were employed to fit the data (see Tables 10 and 11).
# Induction time distribution data were fitted with stretched exponentials via nonlinear least square regression: P=exp[−(t/τ)^β], where P is the probability to observe no crystallization event within time t. τ is an average of induction times for all Y, R, ON forms.
# Induction time distribution data were fitted with superposition of two or three exponentials via nonlinear least square regression. Two-exponential fit was employed for PEG200DA and PEG700DA samples: P=a·exp[−t/τ(Y)]+(1−a)·exp[−t/τ(R)], with τ(R) an average of forms R and O for the PEG700DA sample. Three-exponential fit was used for PEG400DA and PEG575DA samples: P=a·exp[−t/τ(Y)]+b·exp[−t/τ(R)]+(1−a−b)·exp[−t/τ(O)], where Y, R, and O represent the yellow, red and orange needle forms respectively. *τ, an average induction time of Form R and ON, given the lack of data points to distinguish the two.
# [2] = Preferred orientation of ROY crystals on PEGMDA polymer films by XRD; format: physicochemical
# Excerpt: The ROY-polymer interactions were probed via preferred crystal orientations on flat PEGMDA films. From the bulk solution, ROY crystallized in Form Y predominantly. In comparison, PEGMDA films templated nucleation of R, as well as Y, which is consistent with the observations with microgels. […] To verify this observation, the contribution from each crystal facet was quantified and listed the prominent ones in Table 12. […] Polymers with M=130, 200 g/mol favor R (111) and R (220). As M increases, percentage of R decreases and Y increases to become the dominant polymorph on M=575, 700 g/mol, which is contact with the polymer via Y (020) and/or (040) facet.
# XRD patterns of ROY crystallized from bulk solution and on PEGDA films under the substantially similar conditions were obtained. Additional peaks observed from crystals templated by polymer films but not from bulk crystals were observed. Reference patterns were calculated from CSD using POWD-12++.
# Analysis on the XRD data is carried out by normalizing the measured peak intensities Ip^i with the reference peak intensities Ibulk^i from the bulk sample, following the formula
# [formula] where ηi is the percentage of crystals in orientation i, and p is short for polymer. Percentages are highlighted as bold for dominant orientations in each case.
# [3] = Partition coefficients of CBZ and ROY in PEGMDA microgels from ethanol solutions; format: physicochemical; conditions: for Partition coefficient κ (solute mass fraction in gel solution / bulk): ethanol solution
# [4] = ROY polymorph frequency of occurrence; format: physicochemical; conditions: vs bulk crystallization
# Experimental: as §1
# In FIG. 31: Polymorph frequency of occurrence in 12 mg/ml ROY-ethanol solution with or without microgels of various mesh sizes (left) and at higher solution concentrations, C0 (right). Frequency of occurrence is calculated as the percentage of samples crystallized in a particular form within 1440 min out of the total number of samples. The analysis for 12 mg/ml solution is carried out previously. In summary, addition of PEGDA microgels accelerated crystallization of all three forms, Y, R and ON.
# [5] = ROY nucleation induction time with PEGMDA microgels in ethanol; format: physicochemical; conditions: ROY Form R; without microgels
# [6] = ROY; at the chosen experimental condition; cited from earlier work
# [7] = PEGMDA polymer film M 130 g/mol
# [8] = PEGMDA polymer film M 200 g/mol
# [9] = PEGMDA polymer film M 400 g/mol
# [10] = PEGMDA polymer film M 575 g/mol
# [11] = PEGMDA polymer film M 700 g/mol
smiles,measurement,setting,value
"Cc1cc(C#N)c(Nc2ccccc2[N+](=O)[O-])s1 [ROY, 5-methyl-2-[(2-nitrophenyl)amino]-3-thiophenecarbonitrile]",time within which all nucleation of Y occurred,"[1]; ROY Form Y, PEG200DA microgels",≤ 100 min
same,τ(O),[1]; PEG400DA microgels,3300 min
same,τ(O),[1]; PEG575DA microgels,2900 min
same,τ(R),[1]; PEG200DA microgels,9000 ± 6000 min
same,τ(R),[1]; PEG400DA microgels,1600 ± 400 min
same,τ(R),[1]; PEG575DA microgels,200 min and 200 ± 20 min
same,τ(Y),[1]; PEG200DA microgels,26.0 ± 1.5 min
same,τ(Y),[1]; PEG400DA microgels,22.0 ± 0.6 min
same,τ(Y),[1]; PEG575DA microgels,10.0 ± 0.8 min
same,τ(Y),[1]; PEG700DA microgels,12.0 ± 1.2 min
same,"average nucleation induction time τ (average of Y, R, ON forms)","[1]; ROY, Bulk ethanol solution",10000 ± 2000 min
same,"average nucleation induction time τ (average of Y, R, ON forms)","[1]; ROY, PEG130DA microgels",4000 ± 750 min
same,"τ(R), an average induction time of Form R and ON","[1]; ROY, PEG700DA microgels",2600 ± 400 min
same,Percentage of ROY crystals in orientation R (111),[2]; [7],38.0%
same,Percentage of ROY crystals in orientation R (220),[2]; [7],46.8%
same,Percentage of ROY crystals in orientation Y (020),[2]; [7],7.5%
same,Percentage of ROY crystals in orientation Y (040),[2]; [7],3.4%
same,Percentage of ROY crystals in orientation R (111),[2]; [8],36.2%
same,Percentage of ROY crystals in orientation R (220),[2]; [8],53.6%
same,Percentage of ROY crystals in orientation Y (020),[2]; [8],3.5%
same,Percentage of ROY crystals in orientation Y (040),[2]; [8],1.6%
same,Percentage of ROY crystals in orientation R (111),[2]; [9],28.8%
same,Percentage of ROY crystals in orientation R (220),[2]; [9],24.9%
same,Percentage of ROY crystals in orientation Y (020),[2]; [9],23.6%
same,Percentage of ROY crystals in orientation Y (040),[2]; [9],9.9%
same,Percentage of ROY crystals in orientation R (111),[2]; [10],12.9%
same,Percentage of ROY crystals in orientation R (220),[2]; [10],20.0%
same,Percentage of ROY crystals in orientation Y (020),[2]; [10],26.9%
same,Percentage of ROY crystals in orientation Y (040),[2]; [10],13.1%
same,Percentage of ROY crystals in orientation R (111),[2]; [11],9.8%
same,Percentage of ROY crystals in orientation R (220),[2]; [11],14.4%
same,Percentage of ROY crystals in orientation Y (020),[2]; [11],50.9%
same,Percentage of ROY crystals in orientation Y (040),[2]; [11],16.9%
same,ROY concentration in the gel phase relative to bulk solution,"[3]; PEGMDA gels, ethanol",6-11 times
same,Partition coefficient κ (solute mass fraction in gel solution / bulk),[3]; PEGMDA microgels M 130 g/mol,6.3 ± 0.2
same,Partition coefficient κ (solute mass fraction in gel solution / bulk),[3]; PEGMDA microgels M 200 g/mol,6.1 ± 0.9
same,Partition coefficient κ (solute mass fraction in gel solution / bulk),[3]; PEGMDA microgels M 400 g/mol,11.0 ± 0.4
same,Partition coefficient κ (solute mass fraction in gel solution / bulk),[3]; PEGMDA microgels M 575 g/mol,11.3 ± 1.6
same,Partition coefficient κ (solute mass fraction in gel solution / bulk),[3]; PEGMDA microgels M 700 g/mol,11.8 ± 1.1
same,improvement of Form R frequency of occurrence by polymer microgels,[4],up to 20 times
same,average induction time of R,[5],over 10000 min
same,relative stability of the three observed polymorphs,[6],Y>ON>R
